Blank lines part the entries; values can stand above or below the molecule they belong to.
Legend:
HCT-116 [1] = assay: Antiproliferative activity against human HCT-116 cells assessed as cell viability after 72 hrs by MTT assay; format: functional
A549 = assay: Antiproliferative activity against human A549 cells assessed as cell viability after 72 hrs by MTT assay; format: functional
HepG2 = assay: Antiproliferative activity against human HepG2 cells assessed as cell viability after 72 hrs by MTT assay; format: functional
SW-620 = assay: Antiproliferative activity against human SW-620 cells assessed as cell viability after 72 hrs by MTT assay; format: functional
HCT-116 [2] = assay: Antitumor activity against human HCT-116 cells xenografted in nude mouse assessed as inhibition of tumor growth at 25 mg/kg, po for 21 days; format: functional; details: HCT-116, po, 504 h, time 21 day, read-out: TGI
[3] = molecular target: Vascular endothelial growth factor receptor 2 (Homo sapiens) (UniProt P35968); assay: Inhibition of human KDR expressed in mammalian expression system at 10 uM by radiometric assay
Chain of Vascular endothelial growth factor receptor 2 (Homo sapiens) (P35968 whole entry): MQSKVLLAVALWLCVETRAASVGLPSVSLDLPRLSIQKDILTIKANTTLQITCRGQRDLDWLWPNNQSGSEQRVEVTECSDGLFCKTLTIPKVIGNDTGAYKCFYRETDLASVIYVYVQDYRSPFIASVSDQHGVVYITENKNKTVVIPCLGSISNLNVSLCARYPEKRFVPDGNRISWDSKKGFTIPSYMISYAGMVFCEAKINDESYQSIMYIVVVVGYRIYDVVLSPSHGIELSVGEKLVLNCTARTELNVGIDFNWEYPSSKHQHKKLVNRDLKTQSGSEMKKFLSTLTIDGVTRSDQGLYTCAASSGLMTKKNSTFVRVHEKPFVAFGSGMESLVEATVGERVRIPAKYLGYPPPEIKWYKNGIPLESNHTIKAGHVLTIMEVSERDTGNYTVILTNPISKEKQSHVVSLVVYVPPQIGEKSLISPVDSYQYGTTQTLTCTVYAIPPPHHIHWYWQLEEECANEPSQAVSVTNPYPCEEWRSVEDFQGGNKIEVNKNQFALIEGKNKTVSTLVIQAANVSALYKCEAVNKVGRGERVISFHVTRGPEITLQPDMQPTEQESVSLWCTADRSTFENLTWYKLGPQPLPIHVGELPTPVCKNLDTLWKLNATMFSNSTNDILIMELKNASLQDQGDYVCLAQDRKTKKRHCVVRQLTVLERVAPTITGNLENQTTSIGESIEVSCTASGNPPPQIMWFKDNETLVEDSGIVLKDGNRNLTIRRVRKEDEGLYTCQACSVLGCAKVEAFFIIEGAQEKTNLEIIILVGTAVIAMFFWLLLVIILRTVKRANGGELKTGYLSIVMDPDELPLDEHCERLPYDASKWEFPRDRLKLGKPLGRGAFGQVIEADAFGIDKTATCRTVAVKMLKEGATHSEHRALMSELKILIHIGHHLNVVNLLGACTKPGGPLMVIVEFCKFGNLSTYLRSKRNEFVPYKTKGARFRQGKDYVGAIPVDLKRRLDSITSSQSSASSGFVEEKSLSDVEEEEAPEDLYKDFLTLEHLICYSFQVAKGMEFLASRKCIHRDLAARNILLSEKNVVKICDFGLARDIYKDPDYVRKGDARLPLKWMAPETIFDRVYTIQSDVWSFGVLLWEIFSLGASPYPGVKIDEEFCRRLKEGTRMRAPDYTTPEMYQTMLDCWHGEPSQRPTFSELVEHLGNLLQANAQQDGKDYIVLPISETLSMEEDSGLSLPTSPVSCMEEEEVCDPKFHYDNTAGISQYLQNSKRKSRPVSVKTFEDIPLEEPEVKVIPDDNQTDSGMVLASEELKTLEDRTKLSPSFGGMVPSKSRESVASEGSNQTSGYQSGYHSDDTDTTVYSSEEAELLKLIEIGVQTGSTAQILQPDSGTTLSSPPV

[4] = Toxicity in nude mouse xenografted with human HCT-116 cells assessed as change in body weight at 12.5 mg/kg, po for 21 days (reference value: 2.2%); format: organism-based; details: in vivo, 504 h, time 21 day
HCT-116 [5] = assay: Induction of cell cycle arrest in human HCT-116 cells assessed as accumulation of cells at S phase at 10 nM after 24 hrs by flow cytometry (reference value: 43.12%); format: functional
HCT-116 [6] = assay: Induction of apoptosis in human HCT-116 cells assessed as early apoptotic cells at 40 nM after 24 hrs by annexinV and 7-ADD staining based flow cytometry (reference value: 0.9%); format: functional
[7] = molecular target: Protein kinase C alpha type (Homo sapiens) (UniProt P17252); assay: Inhibition of human recombinant PKCalpha at 10 uM by radiometric assay
HCT-116 [8] = assay: Induction of cell cycle arrest in human HCT-116 cells assessed as accumulation of cells at S phase at 20 nM after 24 hrs by flow cytometry (reference value: 43.12%); format: functional
[9] = molecular target: Proto-oncogene tyrosine-protein kinase Src (Homo sapiens) (UniProt P12931); assay: Inhibition of human recombinant c-SRC (1-530 aa) at 10 uM by radiometric assay
Chain of Proto-oncogene tyrosine-protein kinase Src (Homo sapiens) (P12931 2-536 limits assumed): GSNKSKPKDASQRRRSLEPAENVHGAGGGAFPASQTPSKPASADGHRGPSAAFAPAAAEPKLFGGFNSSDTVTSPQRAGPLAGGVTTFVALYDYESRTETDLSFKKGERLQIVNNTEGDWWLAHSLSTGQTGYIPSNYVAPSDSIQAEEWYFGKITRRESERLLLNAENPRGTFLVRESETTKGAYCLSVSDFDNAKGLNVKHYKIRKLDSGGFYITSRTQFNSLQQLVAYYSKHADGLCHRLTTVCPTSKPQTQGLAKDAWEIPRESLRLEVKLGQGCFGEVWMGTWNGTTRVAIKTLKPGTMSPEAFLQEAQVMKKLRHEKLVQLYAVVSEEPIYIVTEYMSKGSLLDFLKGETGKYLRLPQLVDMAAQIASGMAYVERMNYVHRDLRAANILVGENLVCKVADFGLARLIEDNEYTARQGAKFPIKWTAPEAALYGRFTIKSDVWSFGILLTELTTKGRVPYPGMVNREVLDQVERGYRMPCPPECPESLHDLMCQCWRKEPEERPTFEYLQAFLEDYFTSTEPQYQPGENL

HCT-116 [10] = assay: Induction of apoptosis in human HCT-116 cells assessed as viable cells at 20 nM after 24 hrs by annexinV and 7-ADD staining based flow cytometry (reference value: 96.7%); format: functional; details: read-out: Activity
HCT-116 [11] = assay: Induction of cell cycle arrest in human HCT-116 cells assessed as accumulation of cells at G1 phase at 20 nM after 24 hrs by flow cytometry (reference value: 40.5%); format: functional
HCT-116 [12] = assay: Induction of apoptosis in human HCT-116 cells assessed as viable cells at 40 nM after 24 hrs by annexinV and 7-ADD staining based flow cytometry (reference value: 96.7%); format: functional; details: read-out: Activity
HCT-116 [13] = assay: Induction of apoptosis in human HCT-116 cells assessed as late apoptotic cells at 10 nM after 24 hrs by annexinV and 7-ADD staining based flow cytometry (reference value: 1.5%); format: functional
HCT-116 [14] = assay: Induction of apoptosis in human HCT-116 cells assessed as late apoptotic cells at 20 nM after 24 hrs by annexinV and 7-ADD staining based flow cytometry (reference value: 1.5%); format: functional
HCT-116 [15] = assay: Induction of cell cycle arrest in human HCT-116 cells assessed as accumulation of cells at G1 phase at 10 nM after 24 hrs by flow cytometry (reference value: 40.5%); format: functional
HCT-116 [16] = assay: Induction of apoptosis in human HCT-116 cells assessed as necrotic cells at 20 nM after 24 hrs by annexinV and 7-ADD staining based flow cytometry (reference value: 0.9%); format: functional
HCT-116 [17] = assay: Induction of cell cycle arrest in human HCT-116 cells assessed as accumulation of cells at G2/M phase at 20 nM after 24 hrs by flow cytometry (reference value: 16.35%); format: functional
HCT-116 [18] = assay: Induction of cell cycle arrest in human HCT-116 cells assessed as accumulation of cells at G2/M phase at 10 nM after 24 hrs by flow cytometry (reference value: 16.35%); format: functional
[19] = Toxicity in nude mouse xenografted with human HCT-116 cells assessed as change in body weight at 25 mg/kg, po for 21 days (reference value: 2.2%); format: organism-based; details: in vivo, 504 h, time 21 day
HCT-116 [20] = assay: Induction of apoptosis in human HCT-116 cells assessed as early apoptotic cells at 10 nM after 24 hrs by annexinV and 7-ADD staining based flow cytometry (reference value: 0.9%); format: functional
Tubulin (Homo sapiens) [21] = molecular target: T1, Tubulin (Homo sapiens) (UniProt P68371+Q9H4B7+P0DPH7+P68366+Q13509+Q71U36+P04350+Q3ZCM7+P07437+P68363+Q9BQE3+Q6PEY2+Q13885+Q9BVA1+Q9BUF5); assay: Inhibition of tubulin polymerization in human HCT-116 cells assessed as complete microtubule depolymerization at 40 nM after 24 hrs by immunofluorescence analysis; format: cell-based
HCT-116 [22] = assay: Antitumor activity against human HCT-116 cells xenografted in nude mouse assessed as inhibition of tumor growth at 12.5 mg/kg, po for 21 days; format: functional; details: HCT-116, po, 504 h, time 21 day, read-out: TGI
[23] = molecular target: Tubulin beta (Homo sapiens) (UniProt P68371+Q9H4B7+Q13509+P04350+Q3ZCM7+P07437+Q13885+Q9BVA1+Q9BUF5+A6NNZ2); assay: Inhibition of N,N'-Ethylenebis(iodoacetamide) binding to beta-tubulin in human HCT-116 cells assessed as reduction in EBI/beta-tubulin adduct formation preincubated for 2 hrs followed by EBI addition and measured after 1.5 hrs by Western blot analysis; format: cell-based; details: dose 0.2-25 µM, time 3.5 hrs
HCT-116 [24] = assay: Induction of apoptosis in human HCT-116 cells assessed as necrotic cells at 10 nM after 24 hrs by annexinV and 7-ADD staining based flow cytometry (reference value: 0.9%); format: functional
HT-29 = assay: Antiproliferative activity against human HT-29 cells assessed as cell viability after 72 hrs by MTT assay; format: functional
Tubulin (Homo sapiens) [25] = molecular target: T1, Tubulin (Homo sapiens); assay: Inhibition of tubulin polymerization in human HCT-116 cells assessed as microtubule spindle formation after 24 hrs by immunofluorescence analysis; format: cell-based; details: dose 20-40 nM
[26] = (§1) Inhibition of porcine brain tubulin polymerization by fluorescence based assay; format: cell-based, Sus scrofa domesticus, 1-87 tumor cell line
1-87 tumor cell line = assay: as §1; details: Sus scrofa domesticus
HCT-116 [27] = assay: Induction of apoptosis in human HCT-116 cells assessed as viable cells at 10 nM after 24 hrs by annexinV and 7-ADD staining based flow cytometry (reference value: 96.7%); format: functional; details: read-out: Activity
[28] = Cytotoxicity against HUVEC assessed as cell viability after 72 hrs by MTT assay; format: cell-based; details: human, HUVEC cells
HCT-116 [29] = assay: Induction of apoptosis in human HCT-116 cells assessed as late apoptotic cells at 40 nM after 24 hrs by annexinV and 7-ADD staining based flow cytometry (reference value: 1.5%); format: functional
Tubulin (Homo sapiens) [30] = molecular target: T1, Tubulin (Homo sapiens); assay: Inhibition of tubulin polymerization in human HCT-116 cells assessed as microtubule network polymerization after 24 hrs by immunofluorescence analysis; format: cell-based; details: dose 20-40 nM
HCT-116 [31] = assay: Induction of apoptosis in human HCT-116 cells assessed as early apoptotic cells at 20 nM after 24 hrs by annexinV and 7-ADD staining based flow cytometry (reference value: 0.9%); format: functional
HCT-116 [32] = assay: Induction of apoptosis in human HCT-116 cells assessed as necrotic cells at 40 nM after 24 hrs by annexinV and 7-ADD staining based flow cytometry (reference value: 0.9%); format: functional

GI50 (SW-620): 24 nM | inhibition [3]: 66% | inhibition [7]: 24% | inhibition [9]: 35% | GI50 (HCT-116 [1]): 0.041 µM | GI50 (A549): 0.065 µM | GI50 (HepG2): 0.053 µM | inhibition (Tubulin (Homo sapiens) [21]): 100% | inhibition [23]: Dose-dependent effect | GI50 (HT-29): 96 nM | inhibition (Tubulin (Homo sapiens) [25]): Dose-dependent effect | IC50 [26]: 4.77 µM | inhibition (Tubulin (Homo sapiens) [30]): Dose-dependent effect
Structure (SMILES): COc1ccc2c(Nc3cc(OC)c(OC)c(OC)c3)n[nH]c2c1
inhibition in vivo at 25 mg/kg (HCT-116 [2]): 59.9% | Activity [4]: 2.8% | Activity (HCT-116 [5]): 41.56% | Activity (HCT-116 [6]): 12.8% | Activity (HCT-116 [8]): 6.04% | viability at 0.02 µM (HCT-116 [10]): 79.2% | Activity (HCT-116 [11]): 6.85% | viability at 0.04 µM (HCT-116 [12]): 66.2% | Activity (HCT-116 [13]): 10.1% | Activity (HCT-116 [14]): 13.1% | Activity (HCT-116 [15]): 36.86% | Activity (HCT-116 [16]): 2.6% | Activity (HCT-116 [17]): 87.12% | Activity (HCT-116 [18]): 21.57% | Activity [19]: 1.1% | Activity (HCT-116 [20]): 5.1% | inhibition in vivo at 12.5 mg/kg (HCT-116 [22]): 34.3% | Activity (HCT-116 [24]): 3.1% | inhibition (1-87 tumor cell line): Dose-dependent effect | viability at 0.01 µM (HCT-116 [27]): 81.8% | GI50 at 72 h [28]: > 25 µM | Activity (HCT-116 [29]): 17.6% | Activity (HCT-116 [31]): 5.2% | Activity (HCT-116 [32]): 3.5%

GI50 (HCT-116 [1]): > 25 µM | GI50 (A549): > 25 µM | GI50 (HepG2): > 25 µM
Structure (SMILES): COc1ccc(Nc2n[nH]c3cc(F)ccc23)cc1

GI50 (HCT-116 [1]): 9.3 µM | GI50 (A549): 6.1 µM | GI50 (HepG2): 10.1 µM
Structure (SMILES): COc1cc(Nc2n[nH]c3cccc(C)c23)cc(OC)c1OC

GI50 (HCT-116 [1]): > 25 µM | GI50 (A549): > 25 µM | GI50 (HepG2): > 25 µM
Structure (SMILES): Cc1ccc2[nH]nc(Nc3ccc4c(c3)OCO4)c2c1

GI50 (HCT-116 [1]): 0.006 µM | GI50 (A549): 0.167 µM | GI50 (HepG2): 0.002 µM
Structure (SMILES): COc1ccc(/C=C\c2cc(OC)c(OC)c(OC)c2)cc1O [COMBRETASTATIN A4]

The next lines start with the molecule.

Structure (SMILES): COc1ccc(Nc2n[nH]c3cc(OC)ccc23)cc1
GI50 (HCT-116 [1]): 24.8 µM | GI50 (A549): > 25 µM | GI50 (HepG2): > 25 µM

Structure (SMILES): COc1ccc2c(Nc3ccc4c(c3)OCO4)n[nH]c2c1
GI50 (HCT-116 [1]): > 25 µM | GI50 (A549): > 25 µM | GI50 (HepG2): > 25 µM

Structure (SMILES): COc1ccc(Nc2n[nH]c3cc(C)ccc23)cc1OC
GI50 (HCT-116 [1]): 2.26 µM | GI50 (A549): 0.99 µM | GI50 (HepG2): 0.63 µM

Structure (SMILES): COc1cc(Nc2n[nH]c3ccc(C)cc23)cc(OC)c1OC
GI50 (HCT-116 [1]): 2.6 µM | GI50 (A549): 1.1 µM | GI50 (HepG2): 4 µM

Structure (SMILES): COc1ccc(Nc2n[nH]c3cc(C)ccc23)cc1
GI50 (HCT-116 [1]): > 25 µM | GI50 (A549): > 25 µM | GI50 (HepG2): > 25 µM

Structure (SMILES): COc1ccc(Nc2n[nH]c3ccc(C)cc23)cc1
GI50 (HCT-116 [1]): > 25 µM | GI50 (A549): > 25 µM | GI50 (HepG2): > 25 µM

Structure (SMILES): COc1cc(Nc2n[nH]c3ccccc23)cc(OC)c1OC
GI50 (HCT-116 [1]): 18.9 µM | GI50 (A549): 19.4 µM | GI50 (HepG2): 24.1 µM

Source: ChEMBL document CHEMBL4732043, “The discovery of novel indazole derivatives as tubulin colchicine site binding agents that displayed potent antitumor activity both in vitro and in vivo” (Eur J Med Chem, 2020)
